Test results: patent US20110065739A1, “NOVEL ISOXAZOLE DRIVATIVE” (priority 2008, published 2011)
Structures can show the parent of a compound that is named as a salt.

molecular target: T1, human GPR120 (Homo sapiens, UniProt Q5NUL3); experiment: Measurement of intracellular calcium concentration (FLIPR), GPR120 agonist action; type: cell-based; conditions: 10 μmol/l test compound, human GPR120 expression CHO cells, Fluo-4 AM
T1 construct: expressed in transfected cells
T1 sequence (Q5NUL3 1-361): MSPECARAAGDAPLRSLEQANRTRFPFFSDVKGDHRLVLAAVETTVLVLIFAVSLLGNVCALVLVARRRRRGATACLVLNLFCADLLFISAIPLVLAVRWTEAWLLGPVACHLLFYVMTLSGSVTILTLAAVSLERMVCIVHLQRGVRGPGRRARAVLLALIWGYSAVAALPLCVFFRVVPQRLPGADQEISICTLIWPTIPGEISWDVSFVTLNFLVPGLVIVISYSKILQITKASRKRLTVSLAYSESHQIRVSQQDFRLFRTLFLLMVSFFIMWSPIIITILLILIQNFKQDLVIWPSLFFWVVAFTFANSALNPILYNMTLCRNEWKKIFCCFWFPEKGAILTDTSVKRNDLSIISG
Description: Using Lipofectamine 2000 (Invitrogen), cDNA of GPR120 receptor was transfected into CHO/NFAT-BLA cells, and drug-resistant cells were isolated to obtain GPR120 stable expression strains. The GPR120-expressed CHO cells were cultured in DMEM/F12 medium containing 10% fetal bovine serum, 100 units/ml penicillin, 0.1 mg/ml streptomycin sulfate, 250 μg/ml Zeocin, 500 μg/mL Geneticin and 15 mM HEPES. On the day before the measurement day, 4 μM Fluo-4 AM (fluorescence calcium indicator reagent) was incubated to be introduced into the human GPR120 expression CHO cells plated at 20000 cells per well of a 96-well black plate (ViewPlate; Packard) in the presence of 2.5 mM probenecid in a CO2 incubator for 1 hour. To the cells was added the test compound diluted with HBSS solution containing 20 mM HEPES and 2.5 mM probenecid. Variations in the intracellular calcium concentration were measured by Fluorescence Imaging Plate Reader (FLIPR; Molecular Devices) to examine the agonist action, and EC50 values were calculated.

Agonistic activity at 10 μmol/l (%) | Compound
84% | 5-(4-(2-(3-isopropoxyphenyl)propoxy)phenyl)-isoxazol-3-ol [Example 33]
93% | C[C@H](Cc1cccc(OC2CC2)c1)Oc1ccc(-c2cc(O)no2)cc1 [Example 22, 5-[4-({(1R)-1-methyl-2-[3-(cyclopropyloxy)phenyl]-1-methylethyl]oxy)phenyl}isoxazol-3-ol]
99% | CC(C)Oc1cc(CC(C)Oc2ccc(-c3cc(O)no3)cc2)ccn1.Cl (stereo not drawn) [Example 62]
101% | 5-(4-(2-(4-methylphenoxy)propyl)phenyl)isoxazol-3-ol [Example 14]

same assay, conditions: 10 μmol/l test compound, human GPR120 expression CHO cells, Fluo-4 AM, read-out: Agonistic activity at 10 μmol/l (%)

Compound | activation at 10 µM
CC(C)Oc1cccc(CC(C)Oc2ccc(-c3cc(O)no3)cc2F)c1 (stereo not drawn) [Example 54, 5-{3-fluoro-4-[2-(3-isopropoxyphenyl)-1-methylethoxy]phenyl}isoxazol-3-ol] | 100%
COc1cccc(C(F)(F)COc2ccc(-c3cc(O)no3)cc2)c1 [Example 3, 5-(4-(2,2-difluoro-2-(3-methoxyphenyl)ethoxy)phenyl)isoxazol-3-ol] | 105%
CC(C)Oc1cccc(C[C@@H](C)Oc2ccc(-c3cc(O)no3)c(F)c2)c1 [Example 28, 5-{2-fluoro-4-[((1R)-1-methyl-2-{3-[(1-methylethyl)oxy]phenyl}ethyl)oxy]phenyl}isoxazol-3-ol] | 97%
CC(C)Oc1cccc(C(C)OCc2ccc(-c3cc(O)no3)cc2)c1 (stereo not drawn) [Example 47, 5-(4-{[1-(3-isopropoxyphenyl)ethoxy]methyl}phenyl)isoxazol-3-ol] | 92%
CC(C)Oc1cccc(CC(C)Oc2ccc(-c3cc(O)no3)nc2)c1 (stereo not drawn) [Example 8, 5-(5-(2-(3-isopropoxyphenyl)-1-methylethoxy)pyridin-2-yl)isoxazol-3-ol] | 96%
CC(C)Oc1cc(C[C@H](C)Oc2ccc(-c3cc(O)no3)cc2)ccn1 [Example 63, 5-(4-(((1S)-1-methyl-2-(2-((1-methylethyl)oxy)pyridin-4-yl)ethyl)oxy)phenyl)isoxazol-3-ol Sodium Salt] | 106%
CCOc1cccc(CC(C)Oc2ccc(-c3cc(O)no3)cn2)c1 (stereo not drawn) [Example 43, 2-[2-(3-ethoxyphenyl)-1-methylethoxy]-5-(3-hydroxyisoxazole-5-yl)pyridinium Trifluoroacetate] | 94%
CCC(Cc1cccc(OC(C)C)c1)Oc1ccc(-c2cc(O)no2)cc1 (stereo not drawn) [Example 34, 5-(4-(2-(3-isopropoxyphenyl)-1-ethylethoxy)phenyl)isoxazol-3-ol] | 90%

Now from value to compound:

activation at 10 µM | Compound
104% | CC(C)Oc1cc(C[C@@H](C)Oc2ccc(-c3cc(O)no3)cc2)ccn1 [Example 64, 5-(4-(((1R)-1-methyl-2-(2-((1-methylethyl)oxy)pyridin-4-yl)ethyl)oxy)phenyl)isoxazol-3-ol Sodium Salt]
98% | CC(C)Oc1cccc(CC(C)Oc2ccc(-c3cc(O)no3)cn2)c1 (stereo not drawn) [Example 7, 5-(6-(2-(3-isopropoxyphenyl)-1-methylethoxy)pyridin-3-yl)isoxazol-3-ol]
100% | CC(C)Oc1cccc(CN(C)Cc2ccc(-c3cc(O)no3)cc2)c1 [Example 9, 5-(4-(((3-isopropoxybenzyl)(methyl)amino)methyl)phenyl)isoxazol-3-ol]
96% | CC(C)Oc1cccc(OC(C)Cc2ccc(-c3cc(O)no3)cc2)c1 (stereo not drawn) [Example 52, 5-{4-[2-(3-isopropoxyphenoxy)propyl]phenyl}isoxazol-3-ol]
98% | CC(C)Oc1cccc(C(F)(F)COc2ccc(-c3cc(O)no3)c(F)c2)c1 [Example 57, 5-{4-[2,2-difluoro-2-(3-isopropoxyphenyl)ethoxy]-2-fluorophenyl}isoxazol-3-ol]
95% | CC(C)Oc1cccc(C(C)COc2ccc(-c3cc(O)no3)cn2)c1 (stereo not drawn) [Example 40, 5-(6-(2-(3-isopropoxyphenyl)propoxy)pyridin-3-yl)isoxazol-3-ol]
95% | COc1cccc(OC(C)Cc2ccc(-c3cc(O)no3)cc2)c1 (stereo not drawn) [Example 12, 5-(4-(2-(3-methoxyphenoxy)propyl)phenyl)isoxazol-3-ol]
94% | CC(C)Oc1cccc(C(C)(C)COc2ccc(-c3cc(O)no3)cc2)c1 [Example 5, 5-(4-(2-methyl-2-(3-isopropoxyphenyl)propoxy)phenyl)-isoxazol-3-ol]
95% | CC(C)Oc1cccc(C[C@H](C)Oc2ccc(-c3cc(O)no3)cc2)c1 [Example 21, 5-{4-[((1S)-1-methyl-2-{3-[(1-methylethyl)oxy]phenyl}ethyl)oxy]phenyl}isoxazol-3-ol]
100% | CC(C)Oc1cccc(C[C@@H](C)Oc2ccc(-c3cc(O)no3)cn2)c1 [Example 26, 5-{6-[((1R)-1-methyl-2-{3-[(1-methylethyl)oxy]phenyl}ethyl)oxy]pyridin-3-yl}isoxazol-3-ol Hydrochloride]
98% | CC(C)Oc1cccc(C(C)COc2ccc(-c3cc(O)no3)cc2)c1 (stereo not drawn) [Example 4, 5-(4-(2-(3-isopropoxyphenyl)propoxy)phenyl)-isoxazol-3-ol]
97% | COc1cc(OC)cc(OC(C)Cc2ccc(-c3cc(O)no3)cc2)c1 (stereo not drawn) [Example 15, 5-(4-(2-(3,5-dimethoxyphenoxy)propyl)phenyl)isoxazol-3-ol]
